Laboratory results reported in the NIST ThermoML archive (doi:10.1016/j.jct.2005.03.012).
± gives the expanded uncertainty stated by the source.

Assay: excess molar enthalpy (molar enthalpy of mixing); xn = mol fraction of the nth substance listed
Conditions: Liquid

CO [methanol] + O
excess molar enthalpy (323.15 K, 2000 kPa, x1 = 0.2): -0.153 ± 0.0055 kcal/mol
excess molar enthalpy (323.15 K, 2000 kPa, x1 = 0.4): -0.168 ± 0.00598 kcal/mol
excess molar enthalpy (323.15 K, 2000 kPa, x1 = 0.6): -0.142 ± 0.00502 kcal/mol
excess molar enthalpy (323.15 K, 2000 kPa, x1 = 0.8): -0.0978 ± 0.00382 kcal/mol
excess molar enthalpy (323.15 K, 5000 kPa, x1 = 0.1): -0.106 ± 0.00406 kcal/mol
excess molar enthalpy (323.15 K, 5000 kPa, x1 = 0.2): -0.154 ± 0.0055 kcal/mol
excess molar enthalpy (323.15 K, 5000 kPa, x1 = 0.3): -0.17 ± 0.00598 kcal/mol
excess molar enthalpy (323.15 K, 5000 kPa, x1 = 0.4): -0.169 ± 0.00598 kcal/mol
excess molar enthalpy (323.15 K, 5000 kPa, x1 = 0.5): -0.158 ± 0.00574 kcal/mol
excess molar enthalpy (323.15 K, 5000 kPa, x1 = 0.6): -0.142 ± 0.00526 kcal/mol
excess molar enthalpy (323.15 K, 5000 kPa, x1 = 0.7): -0.122 ± 0.00454 kcal/mol
excess molar enthalpy (323.15 K, 5000 kPa, x1 = 0.8): -0.0987 ± 0.00382 kcal/mol
excess molar enthalpy (323.15 K, 5000 kPa, x1 = 0.9): -0.055 ± 0.00239 kcal/mol
excess molar enthalpy (323.15 K, 10000 kPa, x1 = 0.2): -0.155 ± 0.0055 kcal/mol
excess molar enthalpy (323.15 K, 10000 kPa, x1 = 0.4): -0.172 ± 0.00598 kcal/mol
excess molar enthalpy (323.15 K, 10000 kPa, x1 = 0.6): -0.143 ± 0.00526 kcal/mol
excess molar enthalpy (323.15 K, 10000 kPa, x1 = 0.8): -0.0997 ± 0.00382 kcal/mol
excess molar enthalpy (325.16 K, 5000 kPa, x1 = 0.1): -0.103 ± 0.00382 kcal/mol
excess molar enthalpy (325.16 K, 5000 kPa, x1 = 0.2): -0.15 ± 0.00526 kcal/mol
excess molar enthalpy (325.16 K, 5000 kPa, x1 = 0.3): -0.165 ± 0.00574 kcal/mol
excess molar enthalpy (325.16 K, 5000 kPa, x1 = 0.4): -0.164 ± 0.00574 kcal/mol
excess molar enthalpy (325.16 K, 5000 kPa, x1 = 0.5): -0.153 ± 0.0055 kcal/mol
excess molar enthalpy (325.16 K, 5000 kPa, x1 = 0.6): -0.139 ± 0.00502 kcal/mol
excess molar enthalpy (325.16 K, 5000 kPa, x1 = 0.7): -0.119 ± 0.00454 kcal/mol
excess molar enthalpy (325.16 K, 5000 kPa, x1 = 0.8): -0.0958 ± 0.00359 kcal/mol
excess molar enthalpy (325.16 K, 5000 kPa, x1 = 0.9): -0.0548 ± 0.00239 kcal/mol
excess molar enthalpy (325.16 K, 10000 kPa, x1 = 0.2): -0.15 ± 0.0055 kcal/mol
excess molar enthalpy (325.16 K, 10000 kPa, x1 = 0.4): -0.166 ± 0.00598 kcal/mol
excess molar enthalpy (325.16 K, 10000 kPa, x1 = 0.6): -0.139 ± 0.00502 kcal/mol
excess molar enthalpy (325.16 K, 10000 kPa, x1 = 0.8): -0.0964 ± 0.00382 kcal/mol
excess molar enthalpy (325.17 K, 2000 kPa, x1 = 0.2): -0.149 ± 0.00526 kcal/mol
excess molar enthalpy (325.17 K, 2000 kPa, x1 = 0.4): -0.164 ± 0.00574 kcal/mol
excess molar enthalpy (325.17 K, 2000 kPa, x1 = 0.6): -0.138 ± 0.00502 kcal/mol
excess molar enthalpy (325.17 K, 2000 kPa, x1 = 0.8): -0.0951 ± 0.00359 kcal/mol
excess molar enthalpy (325.45 K, 5000 kPa, x1 = 0.9): -0.0537 ± 0.00239 kcal/mol
excess molar enthalpy (327.47 K, 5000 kPa, x1 = 0.8): -0.0944 ± 0.00359 kcal/mol
excess molar enthalpy (327.48 K, 5000 kPa, x1 = 0.9): -0.0536 ± 0.00239 kcal/mol
excess molar enthalpy (327.62 K, 2000 kPa, x1 = 0.8): -0.0935 ± 0.00359 kcal/mol
excess molar enthalpy (327.85 K, 10000 kPa, x1 = 0.8): -0.0948 ± 0.00359 kcal/mol
excess molar enthalpy (328.61 K, 5000 kPa, x1 = 0.1): -0.0988 ± 0.00382 kcal/mol
excess molar enthalpy (328.71 K, 5000 kPa, x1 = 0.7): -0.114 ± 0.0043 kcal/mol
excess molar enthalpy (329.03 K, 2000 kPa, x1 = 0.8): -0.0907 ± 0.00359 kcal/mol
excess molar enthalpy (329.7 K, 10000 kPa, x1 = 0.6): -0.132 ± 0.00478 kcal/mol
excess molar enthalpy (329.76 K, 5000 kPa, x1 = 0.6): -0.131 ± 0.00478 kcal/mol
excess molar enthalpy (329.82 K, 2000 kPa, x1 = 0.6): -0.131 ± 0.00478 kcal/mol
excess molar enthalpy (329.82 K, 10000 kPa, x1 = 0.8): -0.0921 ± 0.00359 kcal/mol
excess molar enthalpy (330.07 K, 5000 kPa, x1 = 0.8): -0.0915 ± 0.00359 kcal/mol
excess molar enthalpy (330.39 K, 5000 kPa, x1 = 0.1): -0.0956 ± 0.00359 kcal/mol
excess molar enthalpy (330.5 K, 5000 kPa, x1 = 0.5): -0.144 ± 0.00526 kcal/mol
excess molar enthalpy (330.64 K, 2000 kPa, x1 = 0.2): -0.139 ± 0.00502 kcal/mol
excess molar enthalpy (330.67 K, 10000 kPa, x1 = 0.2): -0.14 ± 0.00502 kcal/mol
excess molar enthalpy (330.69 K, 5000 kPa, x1 = 0.2): -0.14 ± 0.00502 kcal/mol
excess molar enthalpy (330.7 K, 5000 kPa, x1 = 0.7): -0.112 ± 0.0043 kcal/mol
excess molar enthalpy (331.07 K, 2000 kPa, x1 = 0.4): -0.151 ± 0.0055 kcal/mol
excess molar enthalpy (331.07 K, 5000 kPa, x1 = 0.4): -0.153 ± 0.0055 kcal/mol
excess molar enthalpy (331.13 K, 10000 kPa, x1 = 0.4): -0.153 ± 0.0055 kcal/mol
excess molar enthalpy (331.23 K, 5000 kPa, x1 = 0.3): -0.152 ± 0.0055 kcal/mol
excess molar enthalpy (331.57 K, 10000 kPa, x1 = 0.6): -0.128 ± 0.00478 kcal/mol
excess molar enthalpy (331.61 K, 5000 kPa, x1 = 0.6): -0.128 ± 0.00478 kcal/mol
excess molar enthalpy (331.66 K, 2000 kPa, x1 = 0.6): -0.127 ± 0.00478 kcal/mol
excess molar enthalpy (332.3 K, 5000 kPa, x1 = 0.5): -0.14 ± 0.00502 kcal/mol
excess molar enthalpy (332.4 K, 10000 kPa, x1 = 0.2): -0.135 ± 0.00502 kcal/mol
excess molar enthalpy (332.42 K, 2000 kPa, x1 = 0.2): -0.133 ± 0.00478 kcal/mol
excess molar enthalpy (332.5 K, 5000 kPa, x1 = 0.2): -0.136 ± 0.00502 kcal/mol
excess molar enthalpy (332.88 K, 2000 kPa, x1 = 0.4): -0.148 ± 0.00526 kcal/mol
excess molar enthalpy (332.9 K, 5000 kPa, x1 = 0.4): -0.148 ± 0.00526 kcal/mol
excess molar enthalpy (332.91 K, 10000 kPa, x1 = 0.4): -0.149 ± 0.00526 kcal/mol
excess molar enthalpy (333.05 K, 5000 kPa, x1 = 0.3): -0.148 ± 0.00526 kcal/mol
excess molar enthalpy (348.15 K, 5000 kPa, x1 = 0.1): -0.0704 ± 0.00287 kcal/mol
excess molar enthalpy (348.15 K, 5000 kPa, x1 = 0.2): -0.102 ± 0.00382 kcal/mol
excess molar enthalpy (348.15 K, 5000 kPa, x1 = 0.3): -0.112 ± 0.0043 kcal/mol
excess molar enthalpy (348.15 K, 5000 kPa, x1 = 0.4): -0.111 ± 0.0043 kcal/mol
excess molar enthalpy (348.15 K, 5000 kPa, x1 = 0.5): -0.107 ± 0.00406 kcal/mol
excess molar enthalpy (348.15 K, 5000 kPa, x1 = 0.6): -0.0974 ± 0.00382 kcal/mol
excess molar enthalpy (348.15 K, 5000 kPa, x1 = 0.7): -0.0869 ± 0.00335 kcal/mol
excess molar enthalpy (348.15 K, 5000 kPa, x1 = 0.8): -0.0695 ± 0.00287 kcal/mol
excess molar enthalpy (348.15 K, 5000 kPa, x1 = 0.9): -0.0424 ± 0.00208 kcal/mol
excess molar enthalpy (349.68 K, 5000 kPa, x1 = 0.9): -0.0412 ± 0.00201 kcal/mol
excess molar enthalpy (350.05 K, 5000 kPa, x1 = 0.1): -0.0674 ± 0.00287 kcal/mol
excess molar enthalpy (350.05 K, 5000 kPa, x1 = 0.2): -0.0978 ± 0.00382 kcal/mol
excess molar enthalpy (350.05 K, 5000 kPa, x1 = 0.3): -0.106 ± 0.00406 kcal/mol
excess molar enthalpy (350.05 K, 5000 kPa, x1 = 0.4): -0.106 ± 0.00406 kcal/mol
excess molar enthalpy (350.05 K, 5000 kPa, x1 = 0.5): -0.102 ± 0.00382 kcal/mol
excess molar enthalpy (350.05 K, 5000 kPa, x1 = 0.6): -0.0936 ± 0.00359 kcal/mol
excess molar enthalpy (350.05 K, 5000 kPa, x1 = 0.7): -0.0835 ± 0.00335 kcal/mol
excess molar enthalpy (350.05 K, 5000 kPa, x1 = 0.8): -0.0667 ± 0.00287 kcal/mol
excess molar enthalpy (350.05 K, 5000 kPa, x1 = 0.9): -0.0408 ± 0.00201 kcal/mol
excess molar enthalpy (351.04 K, 5000 kPa, x1 = 0.8): -0.0626 ± 0.00263 kcal/mol
excess molar enthalpy (351.25 K, 5000 kPa, x1 = 0.9): -0.0398 ± 0.00198 kcal/mol
excess molar enthalpy (351.64 K, 5000 kPa, x1 = 0.1): -0.0659 ± 0.00287 kcal/mol
excess molar enthalpy (351.93 K, 5000 kPa, x1 = 0.7): -0.0796 ± 0.00311 kcal/mol
excess molar enthalpy (352.43 K, 5000 kPa, x1 = 0.6): -0.0885 ± 0.00359 kcal/mol
excess molar enthalpy (352.79 K, 5000 kPa, x1 = 0.8): -0.0634 ± 0.00263 kcal/mol
excess molar enthalpy (352.88 K, 5000 kPa, x1 = 0.5): -0.096 ± 0.00359 kcal/mol
excess molar enthalpy (353.01 K, 5000 kPa, x1 = 0.2): -0.0922 ± 0.00359 kcal/mol
excess molar enthalpy (353.16 K, 5000 kPa, x1 = 0.4): -0.0995 ± 0.00382 kcal/mol
excess molar enthalpy (353.32 K, 5000 kPa, x1 = 0.3): -0.1 ± 0.00382 kcal/mol
excess molar enthalpy (353.54 K, 5000 kPa, x1 = 0.1): -0.0624 ± 0.00263 kcal/mol
excess molar enthalpy (353.78 K, 5000 kPa, x1 = 0.7): -0.0773 ± 0.00311 kcal/mol
excess molar enthalpy (354.25 K, 5000 kPa, x1 = 0.6): -0.0852 ± 0.00335 kcal/mol
excess molar enthalpy (354.69 K, 5000 kPa, x1 = 0.5): -0.0921 ± 0.00359 kcal/mol
excess molar enthalpy (354.82 K, 5000 kPa, x1 = 0.2): -0.0883 ± 0.00359 kcal/mol
excess molar enthalpy (354.97 K, 5000 kPa, x1 = 0.4): -0.095 ± 0.00359 kcal/mol
